Structures are written as SMILES. pKi: −log10 of the molar value. Where two headings read alike, the source gives them in different places.

Experimental findings from patent US10028942B2 (priority 2013, dated 2018) are described below.

The target of assay [1] is T1, DLK (Homo sapiens, UniProt Q12852).
T1 sequence (Q12852 1-520): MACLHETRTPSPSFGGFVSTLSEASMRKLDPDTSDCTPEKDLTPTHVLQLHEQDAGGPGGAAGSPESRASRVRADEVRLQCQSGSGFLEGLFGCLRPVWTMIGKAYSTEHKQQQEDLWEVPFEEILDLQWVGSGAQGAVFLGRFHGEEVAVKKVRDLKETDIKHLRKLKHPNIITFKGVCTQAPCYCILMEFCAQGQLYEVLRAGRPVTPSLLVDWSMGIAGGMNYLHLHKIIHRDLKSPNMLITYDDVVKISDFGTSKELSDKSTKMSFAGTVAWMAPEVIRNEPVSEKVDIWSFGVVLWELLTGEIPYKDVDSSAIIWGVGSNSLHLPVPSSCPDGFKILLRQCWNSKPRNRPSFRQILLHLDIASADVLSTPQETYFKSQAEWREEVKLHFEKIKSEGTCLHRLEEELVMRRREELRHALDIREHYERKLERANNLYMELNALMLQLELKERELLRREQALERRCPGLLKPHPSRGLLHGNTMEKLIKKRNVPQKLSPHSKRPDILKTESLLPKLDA
As to the kind of experiment: biochemical.

Assay [2] has as its target T1, DLK. Conditions: read-out: DLK (Ki) μM; TR-FRET; 5 nM GST-tagged DLK (catalytic domain aa 1-520), 40 nM HIS-MKK4 K131M substrate, 30 μM ATP, 60 minutes.

Take `Nc1ncc(-c2cc(C3CCOCC3)n(C3CC(F)(F)C3)n2)cc1F` [Compound 37, 5-(1-(3,3-difluorocyclobutyl)-5-(tetra-hydro-2H-pyran-4-yl)-1H-pyrazol-3-yl)-3-fluoropyridin-2-amine]: the pKi at DLK [1] is under 6.00. With `Cc1cc(-c2cc(C3CCN(C4COC4)CC3)n(C(C)C)n2)cnc1N` [Compound 82, 5-(1-isopropyl-5-(1-(oxetan-3-yl)pipe-ridin-4-yl)-1H-pyrazol-3-yl)-3-meth-ylpyridin-2-amine], the pKi at DLK [1] was under 6.00. With `COC1(c2cc(-c3cnc(N)c(C(F)(F)F)c3)nn2C(C)C)CCN(C2COC2)CC1` [Compound 103, 5-(1-isopropyl-5-(4-methoxy-1-(oxetan-3-yl)piperidin-4-yl)-1H-pyrazol-3-yl)-3-(trifluoromethyl)pyridin-2-amine], at DLK [1], the pKi was under 6.00. In turn, `CC(C)n1nc(-c2cnc3c(c2)C(C)(C)C(=O)N3)cc1C1CN(C2COC2)C1` [Compound 61, 5-(1-isopropyl-5-(1-(oxetan-3-yl)aze-tidin-3-yl)-1H-pyrazol-3-yl)-3,3-dimeth-yl-1H-pyrrolo[2,3-b]pyridin-2(3H)-one] gave a pKi at DLK [1] of under 6.00.

Consider `CC(C)n1nc(-c2cnc3[nH]cnc3c2)cc1C1CCN(C2COC2)CC1` [Compound 79, 6-(1-isopropyl-5-(1-(oxetan-3-yl)pipe-ridin-4-yl)-1H-pyrazol-3-yl)-3H-imi-dazo[4,5-b]pyridine], for which the pKi at DLK [1] was under 6.00.

`CC(C)n1nc(-c2cnc3c(c2)CCCN3)cc1C1CCN(C2COC2)CC1` [Compound 96, 6-(1-isopropyl-5-(1-(oxetan-3-yl)pipe-ridin-4-yl)-1H-pyrazol-3-yl)-1,2,3,4-tetahydro-1,8-naphthyridine] gave a pKi at DLK [1] of under 6.00. Turning to `CC(C)n1nc(-c2cnc3c(c2)CC(=O)N3)cc1C1CCN(C2COC2)CC1` [Compound 73, 5-(1-isopropyl-5-(1-(oxetan-3-yl)pipe-ridin-4-yl)-1H-pyrazol-3-yl)-1H-pyrro-lo[2,3-b]pyridin-2(3H)-one], at DLK [1], the pKi was under 6.00.

The compound `CC1(Cn2nc(-c3cnc(N)c(Cl)c3)cc2[C@H]2[C@@H]3CN(CC(F)(F)F)C[C@@H]32)COC1` [Compound 112, 3-chloro-5-(1-((3-methyloxetan-3-yl)methyl)-5-((1R,5S,6r)-3-(2,2,2-trifluoro-ethyl)-3-azabicyclo[3.1.0]hexan-6-yl)-1H-pyrazol-3-yl)pyridin-2-amine] gave a pKi on DLK [1] of under 6.00. With `CC(C)n1nc(-c2cnc(N)c(C(F)F)c2)cc1C(C)(C)C#N` [Compound 5, 2-(3-(6-amino-5-(difluoromethyl)pyridin-3-yl)-1-isopropyl-1H-pyrazol-5-yl)-2-methylpropanenitrile], the pKi at DLK [1] was under 6.00. For `CC(C)n1nc(-c2cnc3c(c2)C(C)(C)C(=O)N3)cc1C1CCN(C2COC2)CC1` [Compound 80, 5-(1-isopropyl-5-(1-(oxetan-3-yl)pipe-ridin-4-yl)-1H-pyrazol-3-yl)-3,3-di-methyl-1H-pyrrolo[2,3-b]pyridin-2 (3H)-one], the negative-log Ki (pKi) on DLK [1] was under 6.00. For the compound `CC(=O)N1CC(c2cc(-c3cnc4[nH]cc(C)c4c3)nn2C(C)C)C1` [Compound 12, 1-(3-(1-isopropyl-3-(3-methyl-1H-pyrrolo[2,3-b]pyridin-5-yl)-1H-pyrazol-5-yl)azetidin-1-yl)ethanone], on DLK [2], the Ki is 0.026 µM. On the same count and under the same terms, the result for `CC(=O)N1CCC(c2cc(-c3cnc4[nH]cc(C)c4c3)nn2C)CC1` [Compound 47, 1-(4-(1-methyl-3-(3-methyl-1H-pyrro-lo[2,3-b]pyridin-5-yl)-1H-pyrazol-5-yl)piperidin-1-yl)ethanone] reads 0.047 µM.

On to `FC1(F)CCC(n2nc(-c3cnc4[nH]cc(C(F)(F)F)c4c3)cc2C2CCOC2)C1` (centres unmarked) [Compound 16, 5-(1-(3,3-difluorocyclopentyl)-5-(tetrahydrofuran-3-yl)-1H-pyrazol-3-yl)-3-(trifluoromethyl)-1H-pyrrolo[2,3-b]pyridine], for which the Ki at DLK [2] was 0.013 µM. Turning to `Nc1ncc(-c2cc(C3CCOC3)n(C3CCC(F)(F)C3)n2)cc1Cl` (centres unmarked) [Compound 23, 3-chloro-5-(1-(3,3-difluorocyclopent-yl)-5-(tetrahydrofuran-3-yl)-1H-pyra-zol-3-yl)pyridin-2-amine], the Ki on DLK [2] came out at 0.35 µM. On the same count and under the same terms, the figure for `Nc1ncc(-c2cc([C@H]3[C@@H]4CNC[C@@H]43)n(CC(F)(F)F)n2)cc1C(F)(F)F` [Compound 107, 5-(5-((1R,5S,6r)-3-azabicyclo[3.1.0]hexan-6-yl)-1-(2,2,2-trifluoroethyl)-1H-pyrazol-3-yl)-3-(trifluoromethyl) pyridin-2-amine] is 0.0024 µM; for `Nc1ncc(-c2cc([C@H]3[C@@H]4CN(C5COC5)C[C@@H]43)n(C3CCCC3)n2)cc1OC(F)F` [Compound 137, 5-(1-cyclopentyl-5-((1R,5S,6r)-3-(oxe-tan-3-yl)-3-azabicyclo[3.1.0]hexan-6-yl)-1H-pyrazol-3-yl)-3-(difluoro-methoxy)pyridin-2-amine] it is 0.0074 µM; for `CC(C)Oc1cc(-c2cc(C3CCN(C4COC4)CC3)n(C3CCCC3)n2)cnc1N` [Compound 90, 5-(1-cyclopentyl-5-(1-(oxetan-3-yl)piperidin-4-yl)-1H-pyrazol-3-yl)-3-iso-propoxypyridin-2-amine] it is 0.12 µM. In the case of `CS(=O)(=O)c1cc(-c2cc([C@H]3[C@@H]4CN(C5COC5)C[C@@H]43)n(C3CCCC3)n2)cnc1N` [Compound 155, 5-(1-cyclopentyl-5-((1R,5S,6r)-3-(oxe-tan-3-yl)-3-azabicyclo[3.1.0]hexan-6-yl)-1H-pyrazol-3-yl)-3-(methyl-sulfonyl)pyridin-2-amine], on DLK [2], the Ki came to 0.3 µM. Consider `CC(C)n1nc(-c2cnc3[nH]cc(F)c3c2)cc1C1CCN(C2COC2)C1` (centres unmarked) [Compound 66, 3-fluoro-5-(1-isopropyl-5-(1-(oxetan-3-yl)pyrrolidin-3-yl)-1H-pyrazol-3-yl)-1H-pyrrolo[2,3-b]pyridine], for which the Ki on DLK [2] was 0.11 µM. For `CC(C)n1nc(-c2cnc(N)c(OC(F)F)c2)cc1[C@H]1[C@@H]2CN(C3COC3)C[C@@H]21` [Compound 141, 3-(difluoromethoxy)-5-(1-isopropyl-5-((1R,5S,6r)-3-(oxetan-3-yl)-3-aza-bicyclo[3.1.0]hexan-6-yl)-1H-pyrazol-3-yl)pyridin-2-amine], the Ki at DLK [2] is 0.008 µM.

`Cc1c[nH]c2ncc(-c3cc(C4CCN(C)C(=O)C4)n(C4CC(F)(F)C4)n3)cc12` (centres unmarked) [Compound 42, 4-(1-(3,3-difluorocyclobutyl)-3-(3-meth-yl-1H-pyrrolo[2,3-b]pyridin-5-yl)-1H-pyrazol-5-yl)-1-methylpiperidin-2-one]: the Ki on DLK [2] is 0.25 µM.

For `COCCN1C[C@@H]2[C@H](C1)[C@H]2c1cc(-c2cnc(N)c(C(F)(F)F)c2)nn1C(C)C` [Compound 117, 5-(1-isopropyl-5-((1R,5 S,6r)-3-(2-methoxyethyl)-3-azabicyclo[3.1.0]hexan-6-yl)-1H-pyrazol-3-yl)-3-(trifluoromethyl)pyridin-2-amine], the Ki at DLK [2] came to 0.0094 µM. As to `Nc1ncc(-c2cc(C3CCOCC3)n(C3CC(F)(F)C3)n2)cc1Cl` [Compound 39, 3-chloro-5-(1-(3,3-difluorocyclobut-yl)-5-(tetrahydro-2H-pyran-4-yl)-1H-pyrazol-3-yl)pyridin-2-amine], on DLK [2], the Ki came out at 0.46 µM. For the compound `Nc1ncc(-c2cc([C@H]3[C@@H]4CN(C5COC5)C[C@@H]43)n(C3CCCC3)n2)cc1C(F)F` [Compound 171, 5-(1-cyclopentyl-5-((1R,5S,6r)-3-(oxe-tan-3-yl)-3-azabicyclo[3.1.0]hexan-6-yl)-1H-pyrazol-3-yl)-3-(difluoro-methyl)pyridin-2-amine], the Ki on DLK [2] stood at 0.016 µM.

Turning to `Nc1ncc(-c2cc([C@H]3[C@@H]4CN(C5COC5)C[C@@H]43)n(CC3CC3)n2)cc1C(F)(F)F` [Compound 152, 5-(1-(cyclopropylmethyl)-5-((1R,5S,6r)-3-(oxetan-3-yl)-3-azabicyclo[3.1.0]hexan-6-yl)-1H-pyrazol-3-yl)-3-(tri-fluoromethyl)pyridin-2-amine], the Ki at DLK [2] was found to be 0.00017 µM.

On to `CC(C)n1nc(-c2cnc(N)c3cn[nH]c23)cc1[C@H]1[C@@H]2CN(CC(F)(F)F)C[C@@H]21` [Compound 114, 7-(1-isopropyl-5-((1R,5S,6r)-3-(2,2,2-trifluoroethyl)-3-azabicyclo[3.1.0]hexan-6-yl)-1H-pyrazol-3-yl)-1H-py-razolo[4,3-c]pyridin-4-amine], for which the Ki at DLK [2] came out at 0.96 µM.

Take `CCc1c[nH]c2ncc(-c3cc(C4CCOC4)n(C4CC(F)(F)C4)n3)cc12` (centres unmarked) [Compound 20, 5-(1-(3,3-difluorocyclobutyl)-5-(tetra-hydrofuran-3-yl)-1H-pyrazol-3-yl)-3-ethyl-1H-pyrrolo[2,3-b]pyridine]: the Ki at DLK [2] stood at 0.025 µM. With `Nc1ncc(-c2cc([C@H]3[C@@H]4CN(C5COC5)C[C@@H]43)n(CC3CC3)n2)cc1C(F)F` [Compound 169, 5-(1-(cyclopropylmethyl)-5-((1R,5S,6r)-3-(oxetan-3-yl)-3-azabicyclo[3.1.0]hexan-6-yl)-1H-pyrazol-3-yl)-3-(di-fluoromethyl)pyridin-2-amine], the Ki at DLK [2] came out at 0.041 µM. `FC(F)(F)c1c[nH]c2ncc(-c3cc(C4CN(C5COC5)C4)n(C4CCOC4)n3)cc12` (centres unmarked) [Compound 55, 5-(5-(1-(oxetan-3-yl)azetidin-3-yl)-1-(tetrahydrofuran-3-yl)-1H-pyrazol-3-yl)-3-(trifluoromethyl)-1H-pyrrolo[2,3-b]pyridine]: the Ki on DLK [2] was found to be 0.019 µM.

The pKi is the Ki on a negative log10 scale, so that one unit is a factor of ten. Read a high pKi as a low Ki. Usually Ki stands for a dissociation constant, usually derived from enzyme kinetics or from competition with a known ligand.
